{
  "source": "DBAASP",
  "assay_in_all_cases": "≥ marks a high value that may be exact or a test limit, other limits are often not marked, values filed in µg/mL are converted to µM",
  "key": {"[1]": {"tested_on": "Staphylococcus aureus VRSA1"}, "[2]": {"tested_on": "Staphylococcus aureus VISA3"}, "[3]": {"tested_on": "Pseudomonas aeruginosa ATCC 27853"}, "[4]": {"tested_on": "Staphylococcus aureus VISA1"}, "[5]": {"tested_on": "Candida albicans ATCC 24433"}, "[6]": {"tested_on": "Enterococcus faecium BCRC 15B0132"}, "[7]": {"tested_on": "Staphylococcus aureus ATCC 25923"}, "[8]": {"tested_on": "Candida albicans ATCC 10259"}, "[9]": {"tested_on": "Staphylococcus aureus VRSA2"}, "[10]": {"tested_on": "Staphylococcus epidermidis ATCC 12228"}, "[11]": {"tested_on": "Micrococcus luteus ATCC 10240"}, "[12]": {"tested_on": "Enterococcus faecalis ATCC 29212"}, "[13]": {"tested_on": "Klebsiella pneumoniae NCIMB 9111"}, "[14]": {"tested_on": "Proteus mirabilis ATCC 25933"}, "Escherichia coli": {"tested_on": "Escherichia coli"}, "[15]": {"tested_on": "Micrococcus luteus ATCC 4698"}, "[16]": {"tested_on": "Salmonella enterica subsp. enterica serovar Typhimurium ATCC 14028"}, "[17]": {"tested_on": "Klebsiella pneumoniae ATCC 10031"}, "Candida albicans": {"tested_on": "Candida albicans"}, "[18]": {"tested_on": "Pseudomonas aeruginosa ATCC 9027"}, "[19]": {"tested_on": "Bacillus subtilis KCTC 1021"}, "Pseudomonas putida": {"tested_on": "Pseudomonas putida"}, "[20]": {"tested_on": "Shigella dysenteriae ATCC 9752"}, "Serratia marcescens": {"tested_on": "Serratia marcescens"}, "Saccharomyces cerevisiae": {"tested_on": "Saccharomyces cerevisiae"}, "Escherichia coli KF130": {"tested_on": "Escherichia coli KF130"}, "[21]": {"tested_on": "Pseudomonas aeruginosa K799"}, "[22]": {"tested_on": "Salmonella enterica subsp. enterica serovar Typhimurium ATCC 14028s"}, "Escherichia coli KF111": {"tested_on": "Escherichia coli KF111"}, "[23]": {"tested_on": "Pseudomonas aeruginosa H744"}, "[24]": {"tested_on": "Staphylococcus epidermidis"}, "Escherichia coli UB1005": {"tested_on": "Escherichia coli UB1005"}, "[25]": {"tested_on": "Pseudomonas aeruginosa H374"}, "[26]": {"tested_on": "Bacillus cereus ATCC 9193"}, "[27]": {"tested_on": "Staphylococcus aureus ATCC 29213"}, "[28]": {"tested_on": "Salmonella enterica subsp. enterica serovar Choleraesuis CVCC 2140"}, "[29]": {"tested_on": "Pasteurella multocida ATCC 6529"}, "Escherichia coli BL21": {"tested_on": "Escherichia coli BL21"}},
  "data": [
    {"smiles": "CC(=O)N[C@@H](C)C(=O)N[C@@H](CCCCN)C(=O)N[C@@H](CCCN=C(N)N)C(=O)N[C@@H](Cc1cnc[nH]1)C(=O)N[C@@H](Cc1cnc[nH]1)C(=O)NCC(=O)N[C@@H](Cc1ccc(O)cc1)C(=O)N[C@@H](CCCCN)C(=O)N[C@@H](CCCN=C(N)N)C(=O)N[C@@H](CCCCN)C(=O)N[C@@H](Cc1ccccc1)C(=O)N[C@@H](Cc1cnc[nH]1)C(N)=O", "note": "[AKRHHGYKRKFH]", "values": [
      {"measurement": "MIC", "setting": "[1]", "value": "≥ 40.9", "unit": "µM"},
      {"measurement": "MIC", "setting": "[2]", "value": "≥ 40.9", "unit": "µM"},
      {"measurement": "MIC", "setting": "[3]", "value": 320, "unit": "µM"},
      {"measurement": "MIC", "setting": "[4]", "value": "≥ 40.9", "unit": "µM"},
      {"measurement": "MIC", "setting": "[5]", "value": "≥ 47.9", "unit": "µM"},
      {"measurement": "MIC", "setting": "[6]", "value": "≥ 40.9", "unit": "µM"},
      {"measurement": "MIC", "setting": "[7]", "value": 20.8, "unit": "µM"},
      {"measurement": "MIC", "setting": "[8]", "value": "≥ 47.9", "unit": "µM"},
      {"measurement": "MIC", "setting": "[9]", "value": "≥ 40.9", "unit": "µM"},
      {"measurement": "MIC", "setting": "[10]", "value": 20.8, "unit": "µM"},
      {"measurement": "MIC", "setting": "[11]", "value": "≥ 47.9", "unit": "µM"},
      {"measurement": "MIC", "setting": "[12]", "value": 10.2, "unit": "µM"},
      {"measurement": "MIC", "setting": "[13]", "value": "≥ 320", "unit": "µM"}
    ]},
    {"smiles": "CC[C@H](C)[C@H](NC(=O)CN)C(=O)N[C@@H](CCSC)C(=O)N[C@@H](CO)C(=O)N[C@H](C(=O)N[C@H](C(=O)N[C@@H](CCCCN)C(=O)N[C@@H](CC(=O)O)C(=O)N[C@H](C(=O)N[C@@H](C)C(=O)N[C@@H](CCCCN)C(=O)N[C@H](C(=O)N[C@@H](C)C(=O)N[C@@H](C)C(=O)N[C@@H](CCCCN)C(=O)N[C@@H](CCC(=O)O)C(=O)N[C@@H](C)C(=O)N[C@@H](C)C(=O)N[C@@H](CCCCN)C(=O)NCC(=O)N[C@@H](C)C(=O)N[C@@H](CC(C)C)C(=O)N[C@@H](CO)C(=O)N[C@H](C(=O)N[C@@H](CC(C)C)C(=O)N[C@@H](CO)C(=O)N[C@H]1CSSC[C@@H](C(=O)O)NC(=O)[C@H]([C@@H](C)O)NC(=O)[C@H](CCCCN)NC(=O)[C@H](C)NC(=O)[C@H](CC(C)C)NC(=O)[C@H](CCCCN)NC1=O)[C@@H](C)O)[C@@H](C)O)C(C)C)C(C)C)[C@@H](C)CC", "note": "[GIMSIVKDVAKTAAKEAAKGALSTLSCKLAKTC]", "values": [
      {"measurement": "MIC", "setting": "[14]", "value": "≥ 60.4", "unit": "µM"},
      {"measurement": "MIC", "setting": "Escherichia coli", "value": 22.7, "unit": "µM"},
      {"measurement": "MIC", "setting": "[15]", "value": 0.755, "unit": "µM"},
      {"measurement": "MIC", "setting": "[16]", "value": 45.3, "unit": "µM"},
      {"measurement": "MIC", "setting": "[17]", "value": 7.56, "unit": "µM"},
      {"measurement": "MIC", "setting": "Candida albicans", "value": "> 60.4", "unit": "µM"},
      {"measurement": "MIC", "setting": "[18]", "value": 15.1, "unit": "µM"},
      {"measurement": "MIC", "setting": "[19]", "value": 3.02, "unit": "µM"},
      {"measurement": "MIC", "setting": "[10]", "value": 3.02, "unit": "µM"},
      {"measurement": "MIC", "setting": "Pseudomonas putida", "value": 15.1, "unit": "µM"},
      {"measurement": "MIC", "setting": "[20]", "value": 7.56, "unit": "µM"},
      {"measurement": "MIC", "setting": "Serratia marcescens", "value": "≥ 60.4", "unit": "µM"},
      {"measurement": "MIC", "setting": "Saccharomyces cerevisiae", "value": "≥ 60.4", "unit": "µM"}
    ]},
    {"smiles": "CC[C@H](C)[C@H](NC(=O)[C@@H]1CCCN1C(=O)[C@H](CCCCN)NC(=O)[C@H](CC(C)C)NC(=O)[C@H](C)NC(=O)[C@@H](NC(=O)[C@H](Cc1ccc(O)cc1)NC(=O)[C@H](CC(C)C)NC(=O)[C@@H](NC(=O)[C@@H](NC(=O)[C@H](CCCN=C(N)N)NC(=O)[C@H](C)NC(=O)[C@@H]1CCCN1C(=O)[C@H](CO)NC(=O)[C@H](CCCCN)NC(=O)[C@H](Cc1ccccc1)NC(=O)[C@@H](NC(=O)[C@H](CCCCN)NC(=O)[C@H](CC(C)C)NC(=O)[C@H](Cc1ccccc1)NC(=O)[C@H](CO)NC(=O)[C@H](CCCCN)NC(=O)[C@H](Cc1c[nH]c2ccccc12)NC(=O)[C@@H](N)CCCCN)[C@@H](C)O)[C@@H](C)O)C(C)C)[C@@H](C)O)C(=O)N[C@@H](CO)C(=O)N[C@@H](CO)C(=O)O", "note": "[KWKSFLKTFKSPARTVLYTALKPISS]", "values": [
      {"measurement": "MIC", "setting": "Escherichia coli KF130", "value": 0.667, "unit": "µM"},
      {"measurement": "MIC", "setting": "[21]", "value": 10.7, "unit": "µM"},
      {"measurement": "MIC", "setting": "[22]", "value": 5.34, "unit": "µM"},
      {"measurement": "MIC", "setting": "Escherichia coli KF111", "value": 0.667, "unit": "µM"},
      {"measurement": "MIC", "setting": "[23]", "value": 5.34, "unit": "µM"},
      {"measurement": "MIC", "setting": "[24]", "value": 21.3, "unit": "µM"},
      {"measurement": "MIC", "setting": "Escherichia coli UB1005", "value": 0.334, "unit": "µM"},
      {"measurement": "MIC", "setting": "[25]", "value": 5.34, "unit": "µM"}
    ]},
    {"smiles": "CC(C)C[C@@H]1NC(=O)CNC(=O)CNC(=O)[C@H](Cc2cnc[nH]2)NC(=O)[C@@H]2CSSC[C@@H]3NC(=O)[C@H](Cc4ccccc4)NC(=O)[C@H](CC(N)=O)NC(=O)CNC(=O)[C@H](CCC(N)=O)NC(=O)[C@H](CO)NC(=O)[C@H](CCCN=C(N)N)NC(=O)[C@@H](NC(=O)[C@H](C)NC(=O)[C@H](C)NC(=O)[C@@H](NC(=O)[C@H](CC(=O)O)NC(=O)[C@H](C)NC(=O)[C@H](Cc4ccccc4)NC(=O)[C@@H]4CCCN4C(=O)[C@H](C)NC(=O)[C@H](CC(=O)O)NC(=O)[C@H](C)NC(=O)[C@H](CO)NC(=O)CNC(=O)[C@@H]4CCCN4C(=O)[C@H](C)NC(=O)[C@H](C)NC(=O)[C@H](CCC(N)=O)NC(=O)[C@H](Cc4ccccc4)NC(=O)[C@H](CC(C)C)NC(=O)[C@H](Cc4ccccc4)NC(=O)[C@H](CC(C)C)NC(=O)[C@H](CC(C)C)NC(=O)[C@@H](N)C(C)C)[C@@H](C)O)CSSC[C@H](NC(=O)[C@H](CC(N)=O)NC(=O)[C@H](CC(C)C)NC1=O)C(=O)N[C@H](C(=O)N[C@@H](C)C(=O)N[C@@H](CCCCN)C(=O)O)CSSC[C@H](NC(=O)[C@H](C)NC(=O)CNC(=O)[C@H](C)NC(=O)[C@H](CCCN=C(N)N)NC3=O)C(=O)N1CCC[C@H]1C(=O)N1CCC[C@H]1C(=O)N[C@@H]([C@@H](C)O)C(=O)N[C@@H](Cc1ccccc1)C(=O)N[C@@H](C)C(=O)N[C@@H](C)C(=O)N[C@@H](CO)C(=O)NCC(=O)N[C@@H](CO)C(=O)N2", "note": "[VLLFLFQAAPGSADAPFADTAACRSQGNFCRAGACPPTFAASGSCHGGLLNCCAK]", "values": [
      {"measurement": "MIC", "setting": "[26]", "value": 0.97, "unit": "µM"},
      {"measurement": "MIC", "setting": "[27]", "value": 3.66, "unit": "µM"},
      {"measurement": "MIC", "setting": "[28]", "value": "≥ 73.2", "unit": "µM"},
      {"measurement": "MIC", "setting": "[29]", "value": 14.4, "unit": "µM"},
      {"measurement": "MIC", "setting": "Escherichia coli BL21", "value": "≥ 57.4", "unit": "µM"}
    ]}
  ]
}
